# Experimental data: ChEMBL document CHEMBL2321738, “Metabolites of the pyrimidine amine preladenant as adenosine a2a receptor antagonists” (ACS Med Chem Lett, 2013)
# Molecular target: Adenosine receptor A2a (Homo sapiens, UniProt P29274)
# Experiment: Binding affinity to human adenosine A2a receptor by competition binding assay
# Adenosine receptor A2a, sequence (P29274 whole entry): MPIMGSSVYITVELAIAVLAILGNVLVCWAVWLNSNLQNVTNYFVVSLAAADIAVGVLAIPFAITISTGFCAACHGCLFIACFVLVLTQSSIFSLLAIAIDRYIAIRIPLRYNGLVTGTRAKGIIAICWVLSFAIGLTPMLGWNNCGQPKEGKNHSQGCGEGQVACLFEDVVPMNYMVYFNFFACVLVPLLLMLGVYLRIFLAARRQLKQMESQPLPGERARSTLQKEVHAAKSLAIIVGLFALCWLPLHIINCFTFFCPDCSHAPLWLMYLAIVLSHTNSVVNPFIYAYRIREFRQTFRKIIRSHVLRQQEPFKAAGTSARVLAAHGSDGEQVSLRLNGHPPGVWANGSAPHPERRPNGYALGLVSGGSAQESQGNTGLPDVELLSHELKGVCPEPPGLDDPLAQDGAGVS
row,Ki [nM],SMILES
1,1.4,Nc1nc2c(cnn2CCN2CCN(c3ccc(OCC(=O)O)cc3)CC2)c2nc(-c3ccco3)nn12
2,> 1000,Nc1nc2c(cnn2CCN2CCN(c3ccc(OCC(=O)O)cc3)CC2)c2nc(C(O)CCC(=O)O)nn12 (centres undefined)
3,> 1000,Nc1nc2c(cnn2CC(=O)O)c2nc(-c3ccco3)nn12
4,> 1000,COCCOc1ccc(N2CCN(CCn3ncc4c3nc(N)n3nc(C(O)CCC(=O)O)nc43)CC2)cc1 (centres undefined)
